Results: PubChem BioAssay AID1919006 (Molecular Pharmacology Branch, DTP, NCI, 2023)
pIC50: −log10 of the molar value.

Test system: 885512-296-R-J2-PDC complex spheroid growth, % test/control
Assay: Anticancer human tumor 885512-296-R-J2-PDC patient-derived breast carcinoma cell line growth inhibition [AhR]
Conditions: for pIC50: curve of first compound; for viability, T/C: stronger effect = lower value; active means viability on the fitted dose curve at most 10% of control; inactive means the rest
Text: Multicellular complex tumor spheroid response to aryl hydrocarbon receptor antagonists in combination with a variety of drugs and investigational agents in selected tumor cell lines
The current study was undertaken to assess response to aryl hydrocarbon receptor antagonists in combination with standard-of-care drugs and investigational agents in solid tumor complex spheroid models. Complex spheroids include a stromal component modeled by human endothelial cells (HUVEC) and fibroblasts modeled by human mesenchymal stem cells (MSCs). The concentration ranges selected for each drug and investigational agent were based upon clinically achievable concentrations if the clinical Cmax of the agent was known.
Compounds. The drugs and investigational agents: BAY 2416964 (NSC825713), GNF351 (NSC835774), CH-223191 (NSC835775), CPI-455 (NSC825282), aza-TdCyd (NSC777586), decitabine (NSC127716), belinostat (NSC758774), entinostat (NSC756642), pevonedistat (NSC761192), tazemetostat (NSC777109), talazoparib (NSC765396), olaparib (NSC753686), selinexor (NSC780203), nedisertib (M3814, NSC802822), bortezomib (NSC756655), venetoclax (NSC766270), doxorubicin (NSC123127), elimusertib (BAY189344, NSC800525), ceralasertib (AZD6738, NSC777638), TAK-243 (NSC785004), alisertib (NSC759677), etoposide (NSC141540), topotecan (NSC609699), eribulin (NSC707389), gemcitabine (NSC613327), carboplatin (NSC241240), cisplatin (NSC119875), and SN-38 (NSC673596) were obtained from the National Cancer Institute (NCI) Developmental Therapeutics Program Chemical Repository (32). The FDA-approved anticancer drug set is available from the Developmental Therapeutics Program at https://dtp.cancer.gov/organization/dscb/obtaining/available plates.htm. […] The stock solutions were prepared in dimethyl sulfoxide (DMSO, Sigma-Aldrich, St. Louis, MO, cat. D2650), except for the platinum compounds which were prepared in saline (Quality Biological, Gaithersburg, MD, cat. 114-055-101), at 800-fold the tested concentration and stored at -70 degrees C prior to their use. All drugs and investigational agents were tested over a range starting from a high concentration at or near the clinical Cmax and decreasing in half-log increments. If the clinical Cmax for an agent had not been determined, the highest concentration tested was 10 microM (Table 1).
Cell Culture. All cells were maintained in an incubator at 37 degrees C and 5% CO2 with 95% humidity. The PDC lines were cultured according to standard operating procedures established by the NCI PDMR (https://pdmr.cancer.gov). Briefly, all PDCs were thawed and cultured in Matrigel-coated flasks prepared with a working solution of 1X Ham's F-12 nutrient mix, without supplementation (Invitrogen, Waltham, MA, cat. 11765054), 100 U/mL penicillin-streptomycin (Invitrogen, cat. 15140122), and 2.5% Matrigel (Corning Inc., Corning, NY, cat. 354248) for the first three passages. All PDCs were cultured in complete DMEM/F-12 media containing advanced DMEM/F-12 (Invitrogen, cat. 12634028), 4.9% defined fetal bovine serum, heat inactivated (HyClone Laboratories Inc., Logan, UT, cat. SH30070.03HI), 389 ng/mL hydrocortisone (Sigma-Aldrich, cat. H4001), 9.7 ng/mL human EGF recombinant protein (Invitrogen, cat. PHG0313), 23.4 microg/mL adenine (Sigma-Aldrich, cat. A2786), 97.3 U/mL penicillin-streptomycin (Invitrogen, cat. 15140122), 1.9 mM L-glutamine (Invitrogen, cat. 25030081), and 9.7 microM Y-27632 dihydrochloride (Tocris Bioscience, Bristol, United Kingdom, cat. 1254). The PDCs were cultured in complete DMEM/F12 media without 10 microM Y-27632 dihydrochloride for at least two passages prior to the screen. The established cell lines NCI-H1341 and […] were cultured in DMEM/F-12, HEPES (Invitrogen, cat. 11330032), 5% defined fetal bovine serum (HyClone Laboratories Inc., cat. SH30070.03), ITS premix universal culture supplement [insulin (5 microg/mL), transferrin (5 microg/mL), and selenious acid (5 ng/mL)] […]

[1] = second compound 0.1 µM, first compound 0.0316 µM
[2] = second compound 0.1 µM, first compound 0.1 µM
[3] = second compound 0.316 µM, first compound 0.0316 µM
[4] = second compound 0.316 µM, first compound 0.1 µM
[5] = second compound 1 µM, first compound 0.0316 µM
[6] = second compound 1 µM, first compound 0.1 µM
[7] = second compound 3.16 µM, first compound 0.0316 µM
[8] = second compound 3.16 µM, first compound 0.1 µM
[9] = second compound 10 µM, first compound 0.0316 µM
[10] = second compound 10 µM, first compound 0.1 µM
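Further: spheroids exposed to compounds for seven days.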

CC[C@@]1(O)C(=O)OCc2c1cc1n(c2=O)Cc2cc3c(CN(C)C)c(O)ccc3nc2-1 + CC(CO)NC(=O)c1cc(-c2ccc(Cl)cc2)nn(-c2cnn(C)c2)c1=O
7.94: pIC50 (second compound 0.1 µM)
active: viability, T/C [2] 4.56% | viability, T/C [3] 7.83% | viability, T/C [4] 5.61% | viability, T/C [6] 6.33% | viability, T/C [8] 4.27% | viability, T/C [10] 7.97%
inactive: viability, T/C (second compound 0.1 µM, first compound 0.000316 µM) 104% | viability, T/C (second compound 0.1 µM, first compound 0.001 µM) 107% | viability, T/C (second compound 0.1 µM, first compound 0.00316 µM) 87.9% | viability, T/C (second compound 0.1 µM, first compound 0.01 µM) 58.3% | viability, T/C [1] 8.77% | viability, T/C (second compound 0.316 µM, first compound 0.000316 µM) 92.6% | viability, T/C (second compound 0.316 µM, first compound 0.001 µM) 94.5% | viability, T/C (second compound 0.316 µM, first compound 0.00316 µM) 87.9% | viability, T/C (second compound 0.316 µM, first compound 0.01 µM) 57% | viability, T/C (second compound 1 µM, first compound 0.000316 µM) 110% | viability, T/C (second compound 1 µM, first compound 0.001 µM) 107% | viability, T/C (second compound 1 µM, first compound 0.00316 µM) 92.8% | viability, T/C (second compound 1 µM, first compound 0.01 µM) 54.5% | viability, T/C [5] 10% | viability, T/C (second compound 3.16 µM, first compound 0.000316 µM) 117% | viability, T/C (second compound 3.16 µM, first compound 0.001 µM) 106% | viability, T/C (second compound 3.16 µM, first compound 0.00316 µM) 81.4% | viability, T/C (second compound 3.16 µM, first compound 0.01 µM) 43% | viability, T/C [7] 10.9% | viability, T/C (second compound 10 µM, first compound 0.000316 µM) 89.4% | viability, T/C (second compound 10 µM, first compound 0.001 µM) 93% | viability, T/C (second compound 10 µM, first compound 0.00316 µM) 75.1% | viability, T/C (second compound 10 µM, first compound 0.01 µM) 46.2% | viability, T/C [9] 10%
7.97: pIC50 (second compound 1 µM)
7.93: pIC50 (second compound 0.316 µM)
8.11: pIC50 (second compound 3.16 µM)
8.09: pIC50 (second compound 10 µM)

Nc1ccn(C2OC(CO)C(O)C2(F)F)c(=O)n1 (stereo not given) + CC(CO)NC(=O)c1cc(-c2ccc(Cl)cc2)nn(-c2cnn(C)c2)c1=O
active: viability, T/C [1] 2.76% | viability, T/C [2] 3% | viability, T/C (second compound 0.1 µM, first compound 0.316 µM) 3.87% | viability, T/C (second compound 0.1 µM, first compound 1 µM) 4.14% | viability, T/C (second compound 0.1 µM, first compound 3.16 µM) 4.54% | viability, T/C (second compound 0.1 µM, first compound 10 µM) 3.83% | viability, T/C [3] 3.69% | viability, T/C [4] 3.44% | viability, T/C (second compound 0.316 µM, first compound 0.316 µM) 2.94% | viability, T/C (second compound 0.316 µM, first compound 1 µM) 4.15% | viability, T/C (second compound 0.316 µM, first compound 3.16 µM) 4.75% | viability, T/C (second compound 0.316 µM, first compound 10 µM) 4.18% | viability, T/C [5] 2.96% | viability, T/C [6] 3.26% | viability, T/C (second compound 1 µM, first compound 0.316 µM) 3.72% | viability, T/C (second compound 1 µM, first compound 1 µM) 3.82% | viability, T/C (second compound 1 µM, first compound 3.16 µM) 5.38% | viability, T/C (second compound 1 µM, first compound 10 µM) 4.22% | viability, T/C [7] 3.18% | viability, T/C [8] 2.97% | viability, T/C (second compound 3.16 µM, first compound 0.316 µM) 3.84% | viability, T/C (second compound 3.16 µM, first compound 1 µM) 3.9% | viability, T/C (second compound 3.16 µM, first compound 3.16 µM) 4.31% | viability, T/C (second compound 3.16 µM, first compound 10 µM) 4.48% | viability, T/C [9] 6.37% | viability, T/C [10] 5.16% | viability, T/C (second compound 10 µM, first compound 0.316 µM) 4.54% | viability, T/C (second compound 10 µM, first compound 1 µM) 3.78% | viability, T/C (second compound 10 µM, first compound 3.16 µM) 4.11% | viability, T/C (second compound 10 µM, first compound 10 µM) 4.01%
> 7.50: pIC50 (second compound 0.1 µM) | pIC50 (second compound 0.316 µM) | pIC50 (second compound 1 µM) | pIC50 (second compound 3.16 µM) | pIC50 (second compound 10 µM)
